Among the data in patent US20240150340A1, “CDK Inhibitors And Their Use As Pharmaceuticals” (Prelude Therapeutics Incorporated, priority 2022, published 2024) are IC50 values, retold here.

One assay has as its system OVCAR3 p-RB. In words: pRB ICW Assay in OVCAR3 Cells. The format is cell-based. The note with it: Homo sapiens, OVCAR-3, incubated with compound for 2 hours. The procedure:
pRB ICW Assay in OVCAR3 Cells
OVCAR3 cells were maintained in RPMI (Corning, Catalog #: 10-040-CV) supplemented with 10% v/v FBS (Gibco, Catalog #: 26140-079), 1% v/v Penicillin Streptomycin (Gibco, Catalog #15140-122.) OVCAR3 cells grown at log phase were trypsinized, counted, and resuspended in fresh medium to reach a final density of 6.7e4 cells/mL and 75 μL of culture were dispensed into a 384-well plate (Falcon, cat #353962) using a Multidrop Combi dispenser (Thermo Scientific). The next day, compounds were dispensed as a 9-point, ½ log serial dilution using a Tecan digital dispenser (D300e), and cells were incubated with compound for 2 hours in a humidified incubator at 37° C. A reference compound at a final concentration of 10 μM was used as a control for maximum inhibition. Each compound was tested in duplicate for each experiment. At the end of the incubation, […] (Electron Microscopy, cat #15710) was slowly added to each well and the plate was incubated at room temperature (RT) for 30 minutes to fix cells. Cells were then permeabilized by incubating with 50 μL/well of wash buffer (1×PBS with 0.1% Triton X-100) 5×5 minutes, followed by 1 hour blocking with 30 μL/well of Odyssey blocking buffer (Li-COR, cat #927-40000), at RT. Anti-phosphor RB antibody (Cell signaling 8516S) was diluted 1:1000 in Odyssey blocking buffer and 20 μL was added to all wells and incubated overnight in 4° C. with gently rocking. The next day, cells were washed 5×5 min with 50 μL/well of wash buffer, followed with 1 hour incubation with secondary antibody and DRAQ5 diluted in Odyssey blocking buffer (1:500 dilution for secondary antibody and 1:2000 dilution for DRAQ5), 5×5 min washes, and one last wash with water. Plates were dried in 37° C. oven for 5 minutes and scanned using Li-COR Odyssey CLx imaging system to acquire intensities at 700 and 800 nm channels.

Another assay deals with T1, CDK2/Cyclin E2 (Homo sapiens, UniProt P24941).
T1 construct: Recombinant protein complex CDK2/Cyclin E2, expressed from insect cell, was purchased from ProQinase
In words: CDK2/CyclinE2 Enzymatic Activity Assay (TR-FRET). The format is biochemical. Particulars: ATP 1 mM final, read-out: CDK2_E1 IC50. The procedure: CDK2/CyclinE2 Enzymatic Activity Assay
The inhibitory activity of compounds was evaluated in vitro using TR-FRET assay with white 384-well low volume microplate (Greiner Bio-One). CDK2/Cyclin E2 catalyzed phosphorylation of peptide in the presence and absence of compounds was measured and used in IC50 determination. Recombinant protein complex CDK2/Cyclin E2, expressed from insect cell, was purchased from ProQinase. Testing compounds were dissolved in DMSO at 1 mM and tested in 9-dose IC50 mode. The reaction mixture was prepared by mixing CDK2/CyclinE2 (1 nM final), ULight-4E-BP1 (50 nM final, Perkinelmer, TRF0128-D), and ATP (1 mM final) in assay buffer (20 mM of HEPES pH 7.4, 1 mM of EGTA, 0.05% BSA, 0.005% Tween 20, and 1 mM TCEP). The compound of interest in DMSO was added to each well in 3-fold serial dilution by dispenser (TECAN D300E) to make a 9.9 μL of reaction mixture. After 20 minutes preincubation at room temperature, 0.1 μL MgCl2 (10 mM final) was added to initiate the reaction. Following a 45 minute incubation at 37° C., the reaction was stopped by addition of 2 μL of quenching buffer consisting of Lance detection buffer (Perkinelmer CR97-100C), LANCE Ultra Europium-anti-P-4E-BP1 (Perkinelmer, TRF0216-D), EDTA, and incubated at room temperature for additional 60 minutes in the dark. The reaction signal was measured by Envision multimode plate reader (PerkinElmer, 2102-0010). IC50 values were determined by fitting the data to the standard 4 parameters with Hill Slope using GraphPad Prism software.
On the technique in general: In TR-FRET formats the signal depends on donor and acceptor labels being close together.

With `Cn1cc(S(=O)(=O)N2CC[C@@H](Nc3ncc(C(F)(F)F)c(-c4cc(C#N)c(C(C)(C)O)s4)n3)[C@H](F)C2)cn1` [Example 119, 5-(2-(((3R,4R)-3-fluoro-1-((1-methyl-1H-pyrazol-4-yl)sulfonyl)piperidin-4-yl)amino)-5-(trifluoromethyl)pyrimidin-4-yl)-2-(2-hydroxypropan-2-yl)thiophene-3-carbonitrile], the IC50 with OVCAR3 p-RB and at CDK2/Cyclin E2 was at most 100 nM in each case.

Turning to `C[C@@H]1CN(S(=O)(=O)c2c[nH]cn2)CC[C@@H]1Nc1ncc(C(F)(F)F)c(-c2cc(C#N)c(C(C)(C)O)s2)n1` [Example 120, 5-(2-(((3R,4S)-1-((1H-imidazol-4-yl)sulfonyl)-3-methylpiperidin-4-yl)amino)-5-(trifluoromethyl)pyrimidin-4-yl)-2-(2-hydroxypropan-2-yl)thiophene-3-carbonitrile], the IC50 in the assay on OVCAR3 p-RB and at CDK2/Cyclin E2 was at most 100 nM throughout.

With `C[C@@H]1CN(S(=O)(=O)c2cn(C)cn2)CC[C@@H]1Nc1ncc(C(F)(F)F)c(-c2cc(C#N)c(C(C)(C)O)s2)n1` [Example 121, 2-(2-hydroxypropan-2-yl)-5-(2-(((3R,4S)-3-methyl-1-((1-methyl-1H-imidazol-4-yl)sulfonyl)piperidin-4-yl)amino)-5-(trifluoromethyl)pyrimidin-4-yl)thiophene-3-carbonitrile], the IC50 (commonly the point on the concentration scale where inhibition reaches its midpoint) with OVCAR3 p-RB is 100 to 500 nM; at CDK2/Cyclin E2, at most 100 nM.

Turning to `CS(=O)(=O)N1CCC(Nc2ncc(C(F)(F)F)c(-c3cc(C#N)c(C(O)C(F)(F)F)s3)n2)CC1` (centres unmarked) [Example 122, 5-(2-((1-(methylsulfonyl)piperidin-4-yl)amino)-5-(trifluoromethyl)pyrimidin-4-yl)-2-(2,2,2-trifluoro-1-hydroxyethyl)thiophene-3-carbonitrile], the IC50 in the assay with OVCAR3 p-RB and at CDK2/Cyclin E2 was at most 100 nM each time.

For the compound `C[C@@H]1CN(S(=O)(=O)c2cnn(C)c2)CC[C@@H]1Nc1ncc(C(F)(F)F)c(-c2cc(C#N)c(C(O)C(F)(F)F)s2)n1` (stereo partly drawn) [Example 123, 5-(2-(((3R,4S)-3-methyl-1-((1-methyl-1H-pyrazol-4-yl)sulfonyl)piperidin-4-yl)amino)-5-(trifluoromethyl)pyrimidin-4-yl)-2-(2,2,2-trifluoro-1-hydroxyethyl)thiophene-3-carbonitrile], the IC50 in the assay with OVCAR3 p-RB and on CDK2/Cyclin E2 was at most 100 nM in each case.

Take `CC(C)(O)Cc1sc(-c2nc(NC3CCN(S(C)(=O)=O)CC3)ncc2C(F)(F)F)cc1C#N` [Example 124, 2-(2-hydroxy-2-methylpropyl)-5-(2-((1-(methylsulfonyl)piperidin-4-yl)amino)-5-(trifluoromethyl)pyrimidin-4-yl)thiophene-3-carbonitrile]: the IC50 in the assay with OVCAR3 p-RB and at CDK2/Cyclin E2 was at most 100 nM in each case.

Take `Cn1cc(S(=O)(=O)N2CCC(Nc3ncc(C(F)(F)F)c(-c4cc(C#N)c(CC(C)(C)O)s4)n3)CC2)cn1` [Example 125, 2-(2-hydroxy-2-methylpropyl)-5-(2-((1-((1-methyl-1H-pyrazol-4-yl)sulfonyl)piperidin-4-yl)amino)-5-(trifluoromethyl)pyrimidin-4-yl)thiophene-3-carbonitrile]: the IC50 in the assay with OVCAR3 p-RB was 100 to 500 nM; at CDK2/Cyclin E2 it was at most 100 nM.

On to `Cn1cc(S(=O)(=O)N2CC[C@@H](Nc3ncc(C(F)(F)F)c(-c4cc(C#N)c(CC(C)(C)O)s4)n3)[C@H](F)C2)cn1` [Example 126, 5-(2-(((3R,4R)-3-fluoro-1-((1-methyl-1H-pyrazol-4-yl)sulfonyl)piperidin-4-yl)amino)-5-(trifluoromethyl)pyrimidin-4-yl)-2-(2-hydroxy-2-methylpropyl)thiophene-3-carbonitrile], for which the IC50 in the assay on OVCAR3 p-RB and at CDK2/Cyclin E2 was at most 100 nM each time.

Regarding `Cn1cnc(S(=O)(=O)N2CC[C@@H](Nc3ncc(C(F)(F)F)c(-c4cc(C#N)c(CC(C)(C)O)s4)n3)[C@H](F)C2)c1` [Example 127, 5-(2-(((3R,4R)-3-fluoro-1-((1-methyl-1H-imidazol-4-yl)sulfonyl)piperidin-4-yl)amino)-5-(trifluoromethyl)pyrimidin-4-yl)-2-(2-hydroxy-2-methylpropyl)thiophene-3-carbonitrile], the IC50 with OVCAR3 p-RB and at CDK2/Cyclin E2 was at most 100 nM in each case.

With `Cn1cc(S(=O)(=O)N2CC[C@@H](Nc3ncc(C(F)(F)F)c(-c4cc(C(N)=O)ns4)n3)[C@H](F)C2)cn1` [Example 128, 5-(2-(((3R,4R)-3-fluoro-1-((1-methyl-1H-pyrazol-4-yl)sulfonyl)piperidin-4-yl)amino)-5-(trifluoromethyl)pyrimidin-4-yl)isothiazole-3-carboxamide], the IC50 in the assay with OVCAR3 p-RB and on CDK2/Cyclin E2 was at most 100 nM each time.

Consider `Cn1cc(S(=O)(=O)N2CC[C@H](Nc3ncc(C(F)(F)F)c(-c4cc(C(N)=O)ns4)n3)[C@H](F)C2)cn1` [Example 129, 5-(2-(((3R,4S)-3-fluoro-1-((1-methyl-1H-pyrazol-4-yl)sulfonyl)piperidin-4-yl)amino)-5-(trifluoromethyl)pyrimidin-4-yl)isothiazole-3-carboxamide], for which the IC50 in the assay on OVCAR3 p-RB and at CDK2/Cyclin E2 was at most 100 nM in each case.

For `CC(C)(O)Cc1sc(-c2nc(NC3CCN(S(C)(=O)=O)CC3)ncc2C(F)(F)F)cc1C(N)=O` [Example 130, 2-(2-hydroxy-2-methylpropyl)-5-(2-((1-(methylsulfonyl)piperidin-4-yl)amino)-5-(trifluoromethyl)pyrimidin-4-yl)thiophene-3-carboxamide], the IC50 with OVCAR3 p-RB was 100 to 500 nM; on CDK2/Cyclin E2 it was at most 100 nM.

As to `C[C@@H]1CN(S(=O)(=O)c2cn(C)cn2)CC[C@@H]1Nc1ncc(C(F)(F)F)c(-c2ncc(C(C)(C)O)s2)n1` [Example 133, 2-(2-(2-(((3R,4S)-3-methyl-1-((1-methyl-1H-imidazol-4-yl)sulfonyl)piperidin-4-yl)amino)-5-(trifluoromethyl)pyrimidin-4-yl)thiazol-5-yl)propan-2-ol], the IC50 in the assay with OVCAR3 p-RB and on CDK2/Cyclin E2 was at most 100 nM throughout.

On to `CS(=O)(=O)N1CCC(Nc2ncc(C(F)(F)F)c(-c3ncc(C(O)C(F)F)s3)n2)CC1` (centres unmarked) [Example 134, 2,2-difluoro-1-(2-(2-((1-(methylsulfonyl)piperidin-4-yl)amino)-5-(trifluoromethyl)pyrimidin-4-yl)thiazol-5-yl)ethan-1-ol], for which the IC50 in the assay with OVCAR3 p-RB and at CDK2/Cyclin E2 was at most 100 nM each time.

Take `CC(C)(O)Cc1cnc(-c2nc(N[C@@H]3CCN(S(C)(=O)=O)C[C@H]3F)ncc2C(F)(F)F)s1` [Example 135, 1-(2-(2-(((3R,4R)-3-fluoro-1-(methylsulfonyl)piperidin-4-yl)amino)-5-(trifluoromethyl)pyrimidin-4-yl)thiazol-5-yl)-2-methylpropan-2-ol]: the figures for the IC50 in the assay with OVCAR3 p-RB and on CDK2/Cyclin E2 were 100 to 500 nM and at most 100 nM, respectively.

On to `Cn1cnc(S(=O)(=O)N2CC[C@H](Nc3ncc(C(F)(F)F)c(-c4ncc(CC(C)(C)O)s4)n3)[C@H](F)C2)c1` [Example 136, 1-(2-(2-(((3R,4S)-3-fluoro-1-((1-methyl-1H-imidazol-4-yl)sulfonyl)piperidin-4-yl)amino)-5-(trifluoromethyl)pyrimidin-4-yl)thiazol-5-yl)-2-methylpropan-2-ol], for which the IC50 with OVCAR3 p-RB and on CDK2/Cyclin E2 was at most 100 nM throughout.
